Assay results as given in PubChem BioAssay (NCI).
“And” between values parts separate entries of the source, which are not always exact repeats. Equal values may be shown once.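 Values below derive from 48-hour exposures of cells grown in 96-well plates, with endpoints linearly interpolated between the two concentrations bracketing the appropriate inhibition level. The concentration for 50% growth inhibition is given as GI50. Definition used: TGI = concentration required for complete inhibition of growth.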

Assays:
Assay in all cases: NCI anticancer screen, dose series, 48 h
M14 melanoma = test system: M14 melanoma
SW-620 colon = test system: SW-620 colon
IGROV1 ovarian = test system: IGROV1 ovarian
T-47D breast = test system: T-47D breast
786-0 renal = test system: 786-0 renal
SF-268 CNS = test system: SF-268 CNS
HS 578T breast = test system: HS 578T breast
SF-539 CNS = test system: SF-539 CNS
NCI-H460 lung = test system: NCI-H460 lung
HOP-92 NSCLC = test system: HOP-92 NSCLC

Row | SMILES | GI50 (M14 melanoma) | TGI (M14 melanoma) | GI50 (SW-620 colon) | TGI (SW-620 colon) | GI50 (IGROV1 ovarian) | TGI (IGROV1 ovarian) | GI50 (T-47D breast) | TGI (T-47D breast) | GI50 (786-0 renal) | TGI (786-0 renal) | GI50 (SF-268 CNS) | TGI (SF-268 CNS) | GI50 (HS 578T breast) | TGI (HS 578T breast) | GI50 (SF-539 CNS) | TGI (SF-539 CNS) | GI50 (NCI-H460 lung) | TGI (NCI-H460 lung) | GI50 (HOP-92 NSCLC) | TGI (HOP-92 NSCLC)
1 | CCCCc1n(Cc2ccc3ccccc3n2)cc[n+]1Cc1ccc2ccccc2n1 | 1.71 µM | 10.2 µM | 2.56 µM | 13.7 µM | 1.17 µM | 10.9 µM | 0.375 µM | 6.01 µM | 4.65 µM | 17.3 µM | 2.18 µM | 14.3 µM | 2.76 µM | 16.5 µM | 1.8 µM | 12.6 µM | 1.87 µM | 11.3 µM | 0.491 µM | 4.34 µM
2 | Cc1ccc2[nH]c(C(=O)NN3C(=O)C(C)SC34CCC(C)CC4)c(-c3ccccc3)c2c1 (configuration not stated) | 18.2 µM | 39 µM | 31.4 µM | 82.6 µM | 13.6 µM | 36.4 µM | 19.4 µM | 85.7 µM | 19 µM | 52.6 µM | 14.9 µM | 35.5 µM | 41.8 µM | > 100 µM | 20.8 µM | 45.6 µM | 15.7 µM | 43.9 µM | 16.7 µM | 36 µM
3 | COc1ccc(C2CC(c3ccc(OC)cc3O)=NN2c2ccc(S(N)(=O)=O)cc2)cc1 (configuration not stated) | 4.54 µM | 25.9 µM | 16 µM | > 100 µM | 6.34 µM | > 100 µM | 4.42 µM | 85.6 µM | 18.4 µM | > 100 µM | 34.1 µM | > 100 µM | 8.22 µM | 98.9 µM | 30.2 µM | > 100 µM | 6.74 µM | 39.2 µM | 3.27 µM | 32.8 µM
4 | CC(=O)Nc1ccc(OC(C)=O)cc1 | < 0.01 µM | 3.32 µM | < 0.01 µM | > 100 µM | < 0.0122 µM | > 48.5 µM | 5.74 µM | > 100 µM | < 0.01 µM | 5.52 µM | < 0.0103 µM | 46.2 µM | < 0.0166 µM | 61.5 µM | < 0.01 µM | 0.766 µM | < 0.01 µM | 16.9 µM | < 0.0116 µM | 1.81 µM
5 | CN[C@@H](Cc1cccc2ccccc12)C(=O)N[C@@H](CC(C)C)B(O)O |  | 0.145 µM | 0.012 µM | 0.026 µM | 0.0187 µM | 0.0554 µM and 0.0681 µM | 0.0156 µM | 0.0372 µM | 0.037 µM | 0.18 µM and 0.0671 µM | 0.0154 µM | 0.0353 µM |  | 0.0577 µM | 0.00473 µM | 0.0167 µM | 0.0266 µM | 0.105 µM and 0.0551 µM | 0.0178 µM | 0.0395 µM
6 | CCc1cccc(NC(=O)Nc2ccc(Oc3ccc4nc(NC(=O)OC)[nH]c4c3)cc2)c1 | 3.13 µM | 12.6 µM | 3.05 µM | 12.1 µM | 5.37 µM | > 25 µM | 3.56 µM | > 15.6 µM | 7 µM | > 25 µM | 4.33 µM | 15.9 µM | 1.41 µM | 19.2 µM | 5.08 µM | > 25 µM | 3.4 µM | 12.4 µM | 2.33 µM | 10.4 µM
7 | CC1(C)CCc2c(c(N=Nc3ccccc3F)c3ccccc3c2O)O1 | > 100 µM | > 100 µM | 32.8 µM | > 100 µM | 32.4 µM | > 100 µM | 36.9 µM | > 100 µM | 26.1 µM | 60.3 µM | 76.3 µM | > 100 µM | 28.6 µM | 99.7 µM | 21.2 µM | 40.4 µM | 38.3 µM | > 100 µM | 92.6 µM | > 100 µM
8 | O=C1c2ccccc2C(=O)c2c1oc1c2c(=O)[nH]c2ccc(Cl)cc21 | 0.397 µM | 1.53 µM | 0.332 µM | 1.01 µM | 0.222 µM | 0.746 µM | 0.256 µM | 0.981 µM | 0.223 µM | 0.543 µM | 0.456 µM | 3.99 µM | 0.264 µM | 1.37 µM | 0.229 µM | 0.566 µM | 0.22 µM | 0.489 µM | 0.151 µM | 0.389 µM
9 | O=C(Nc1cccc(C(F)(F)F)c1)c1ccc(NC2=C(Cl)C(=O)N(Cc3ccccc3)C2=O)cc1 | 9.26 µM | 21.7 µM | 5.11 µM | > 100 µM | 2.01 µM | 4.63 µM | 12.4 µM | 52.7 µM | 12.1 µM | 24.5 µM | 6.41 µM | 29.9 µM | 22.1 µM | > 100 µM | 14.9 µM | 34.1 µM | 5.91 µM | 57 µM | 3.93 µM | 14.2 µM
10 | Cc1c[nH]c(=O)n(Cc2nnc(CCC(=O)c3nc4ccccc4[nH]3)o2)c1=O | 0.492 µM | 3.12 µM | 0.483 µM | > 100 µM | 0.575 µM | > 90.4 µM | 1.03 µM | > 100 µM | 1.98 µM | 38.3 µM | 1.5 µM | > 100 µM | 0.285 µM | 2.3 µM | 0.799 µM | 29.9 µM | 0.387 µM | > 43.1 µM | 1.44 µM | > 100 µM
11 | CCn1c(SCC(=O)Nc2cc(C(F)(F)F)ccc2Cl)nc2ccccc2c1=O | 90.7 µM | > 100 µM | 53.4 µM | > 100 µM | 28.1 µM | > 100 µM | 25.2 µM | > 100 µM | 48.6 µM | > 100 µM | 41.2 µM | > 100 µM | 13 µM | 48.7 µM | 40.1 µM | > 100 µM | 30.5 µM | > 100 µM | 12.1 µM | 41.4 µM
12 | Cc1ccc(-c2nc(/C=N/Nc3cc(C)nc4ccc(Br)cc34)c(C)o2)cc1 | 1.89 µM | 3.63 µM | 1.92 µM | 3.68 µM | 1.84 µM | 3.52 µM | 1.94 µM | 3.94 µM | 1.86 µM | 3.67 µM | 2.09 µM | 4.22 µM | 17 µM | 38.6 µM | 1.72 µM | 3.18 µM | 1.94 µM | 3.73 µM | 1.5 µM | 2.98 µM
13 | COc1cc(NS(C)(=O)=O)ccc1Cc1c2ccccc2nc2ccccc12 | 0.158 µM | 1.43 µM | 0.121 µM | 2.34 µM | 0.414 µM | 2.88 µM | 0.0535 µM | 1.37 µM | 0.139 µM | 0.64 µM | 0.179 µM | 6.03 µM | 1.72 µM | 8.17 µM | 0.118 µM | 1.15 µM | < 0.012 µM | 1.06 µM | 0.129 µM | 1.14 µM
14 | CC1=C2[C@@H](CC1)[C@]1(C)O[C@@](C(C)C)(C[C@H]1OC(=O)CO)[C@H]2OC(=O)CCCc1ccccc1 | 7.78 µM | 21.8 µM | 11 µM | 25.4 µM | 3.71 µM | 14.1 µM | 2.54 µM | 12.3 µM | 13.1 µM | 28.7 µM | 11.5 µM | 32.6 µM | 2.43 µM | 9.23 µM | 14.2 µM | 27.5 µM | 9.1 µM | 22.9 µM | 3.86 µM | 18 µM
15 | CCCS(=O)(=O)Nc1cccc(Nc2ncnc3cc(NC(=O)CCl)ccc23)c1Cl | 1.11 µM | 5.16 µM | 1.23 µM | 4.16 µM | 2.61 µM | 7.06 µM | 3.34 µM | 9.99 µM | 0.935 µM | 3.88 µM | 1.03 µM | 4.62 µM | 3.32 µM | 17 µM | 1.35 µM | 4.54 µM | 3.67 µM | 8.06 µM | 4.38 µM | 8.54 µM
16 | O=C(c1ccccc1)C1OC1C(=O)c1ccccc1 (configuration not stated) | 2.78 µM | 11.9 µM | 3.11 µM | 16.1 µM | 3.56 µM | 15 µM | 3.51 µM | > 100 µM | 4.35 µM | 84.9 µM | 2.93 µM | 19.1 µM | 3.01 µM | > 100 µM | 3.77 µM | 12.6 µM | 3.93 µM | > 100 µM | 1.96 µM | 6.09 µM
17 | COc1cc2c(/C=C3/C(=O)Nc4ccc(O)cc43)c(Cl)n(Cc3cc(OC)c(OC)c(OC)c3)c2cc1C | 1.93 µM | 51 µM | 3.28 µM | > 100 µM |  | 5.75 µM | 5.55 µM | > 70.8 µM | 1.6 µM | > 29.3 µM | 4.64 µM | > 100 µM | 2.37 µM | > 30.5 µM | 2.24 µM | > 31.1 µM | 1.86 µM | > 32.7 µM | 3.18 µM | 21.9 µM
